Laboratory results: the NIST ThermoML archive (doi:10.1021/je400722h)

Key:
[1] = excess molar enthalpy (molar enthalpy of mixing); xn = mol fraction of the nth substance listed; settings: 308.15 K, 101 kPa, Liquid, Power-compensation calorimetry
[2] = xn = mol fraction of the nth substance listed; settings: 101 kPa, Liquid; for speed of sound: Pulse-echo method; for mass density: Vibrating tube method

Cc1ccccc1Cl [2-chlorotoluene] + C1COCCO1
[1]
Settings | excess molar enthalpy [kcal/mol]
x1 = 0.0998 | 0.0387
x1 = 0.1643 | 0.0583
x1 = 0.2095 | 0.0676
x1 = 0.2498 | 0.07529
x1 = 0.3012 | 0.0827
x1 = 0.3567 | 0.0872
x1 = 0.4098 | 0.088
x1 = 0.4597 | 0.0877
x1 = 0.5088 | 0.0851
x1 = 0.5563 | 0.08078
x1 = 0.6019 | 0.07529
x1 = 0.6532 | 0.0672
x1 = 0.7067 | 0.0588
x1 = 0.7538 | 0.04924
x1 = 0.8093 | 0.0382
x1 = 0.8498 | 0.0299
x1 = 0.8932 | 0.0209
x1 = 0.9265 | 0.0144

[2]
Settings | mass density, 298.15 K [kg/m3] | mass density, 303.15 K [kg/m3] | mass density, 308.15 K [kg/m3] | speed of sound, 298.15 K [m/s] | speed of sound, 303.15 K [m/s] | speed of sound, 308.15 K [m/s]
x1 = 0.0984 | 1033.4 | 1027.7 | 1022 | 1338.2 | 1316.6 | 1295.1
x1 = 0.1643 | 1036.9 | 1031.3 | 1025.6 | 1333.2 | 1312 | 1290.8
x1 = 0.2124 | 1039.5 | 1033.9 | 1028.3 | 1329.9 | 1308.9 | 1287.9
x1 = 0.2837 | 1043.3 | 1037.8 | 1032.3 | 1325.3 | 1304.6 | 1284
x1 = 0.3427 | 1046.3 | 1040.9 | 1035.5 | 1321.8 | 1301.5 | 1281.2
x1 = 0.3918 | 1048.9 | 1043.5 | 1038.2 | 1319.1 | 1299 | 1279
x1 = 0.4375 | 1051.2 | 1045.9 | 1040.6 | 1316.8 | 1296.9 | 1277
x1 = 0.4864 | 1053.6 | 1048.4 | 1043.1 | 1314.5 | 1294.8 | 1275.1
x1 = 0.5237 | 1055.5 | 1050.3 | 1045.1 | 1312.8 | 1293.2 | 1273.8
x1 = 0.5765 | 1058.1 | 1052.9 | 1047.7 | 1310.7 | 1291.2 | 1271.9
x1 = 0.6237 | 1060.4 | 1055.2 | 1050.1 | 1308.8 | 1289.6 | 1270.4
x1 = 0.6801 | 1063 | 1057.9 | 1052.8 | 1306.9 | 1287.7 | 1268.7
x1 = 0.7135 | 1064.6 | 1059.5 | 1054.4 | 1305.8 | 1286.7 | 1267.8
x1 = 0.7737 | 1067.4 | 1062.3 | 1057.2 | 1304 | 1285 | 1266.3
x1 = 0.8125 | 1069.2 | 1064.1 | 1059 | 1302.9 | 1284.1 | 1265.4
x1 = 0.8635 | 1071.4 | 1066.4 | 1061.4 | 1301.7 | 1283 | 1264.4
x1 = 0.9012 | 1073.1 | 1068.1 | 1063.1 | 1300.8 | 1282.2 | 1263.8
x1 = 0.9415 | 1074.9 | 1069.9 | 1064.9 | 1299.9 | 1281.5 | 1263.3

Cc1ccccc1Cl [2-chlorotoluene] + C1CCOCC1
[1]
Settings | excess molar enthalpy [kcal/mol]
x1 = 0.0994 | -0.0166
x1 = 0.1367 | -0.0226
x1 = 0.1982 | -0.0304
x1 = 0.2467 | -0.0368
x1 = 0.3018 | -0.0425
x1 = 0.3537 | -0.0459
x1 = 0.3986 | -0.04876
x1 = 0.4367 | -0.05115
x1 = 0.4825 | -0.0526
x1 = 0.5267 | -0.0526
x1 = 0.5894 | -0.05115
x1 = 0.6276 | -0.05043
x1 = 0.6934 | -0.0457
x1 = 0.7368 | -0.0418
x1 = 0.7864 | -0.037

[2]
Settings | mass density, 298.15 K [kg/m3] | mass density, 303.15 K [kg/m3] | mass density, 308.15 K [kg/m3] | speed of sound, 298.15 K [m/s] | speed of sound, 303.15 K [m/s] | speed of sound, 308.15 K [m/s]
x1 = 0.1156 | 906.77 | 901.67 | 896.57 | 1274.6 | 1252.7 | 1230.7
x1 = 0.1765 | 920.75 | 915.67 | 910.57 | 1277 | 1255.6 | 1233.7
x1 = 0.2342 | 933.65 | 928.57 | 923.48 | 1279.3 | 1258.1 | 1236.6
x1 = 0.2765 | 942.89 | 937.81 | 932.73 | 1280.9 | 1259.9 | 1238.6
x1 = 0.3305 | 954.43 | 949.36 | 944.29 | 1282.9 | 1262 | 1241
x1 = 0.3716 | 963.04 | 957.97 | 952.9 | 1284.4 | 1263.7 | 1242.9
x1 = 0.4235 | 973.69 | 968.63 | 963.56 | 1286.2 | 1265.7 | 1245
x1 = 0.4721 | 983.44 | 978.39 | 973.33 | 1287.9 | 1267.4 | 1247
x1 = 0.5216 | 993.16 | 988.12 | 983.08 | 1289.4 | 1269 | 1249
x1 = 0.5803 | 1004.4 | 999.4 | 994.39 | 1291.2 | 1271.1 | 1251.1
x1 = 0.6317 | 1014.1 | 1009.1 | 1004.1 | 1292.6 | 1272.7 | 1252.8
x1 = 0.6796 | 1022.8 | 1017.9 | 1012.9 | 1293.9 | 1274.1 | 1254.5
x1 = 0.7216 | 1030.4 | 1025.4 | 1020.5 | 1294.8 | 1275.3 | 1255.7
x1 = 0.7737 | 1039.6 | 1034.7 | 1029.7 | 1296 | 1276.7 | 1257.3
x1 = 0.8219 | 1047.9 | 1043 | 1038.1 | 1296.8 | 1277.8 | 1258.6
x1 = 0.8753 | 1057 | 1052.1 | 1047.2 | 1297.7 | 1279 | 1260
x1 = 0.9064 | 1062.2 | 1057.3 | 1052.4 | 1298.1 | 1279.5 | 1260.7
x1 = 0.9325 | 1066.5 | 1061.6 | 1056.7 | 1298.3 | 1279.9 | 1261.4

Cc1ccccc1Cl [2-chlorotoluene] + C1COCO1
[1]
Settings | excess molar enthalpy [kcal/mol]
x1 = 0.0945 | 0.0361
x1 = 0.1378 | 0.05043
x1 = 0.1987 | 0.066
x1 = 0.2396 | 0.07481
x1 = 0.2914 | 0.0841
x1 = 0.3467 | 0.0899
x1 = 0.3962 | 0.0937
x1 = 0.4532 | 0.0956
x1 = 0.4991 | 0.0939
x1 = 0.5432 | 0.0915
x1 = 0.5899 | 0.088
x1 = 0.6329 | 0.08198
x1 = 0.6923 | 0.07337
x1 = 0.7321 | 0.065
x1 = 0.8021 | 0.05043
x1 = 0.8492 | 0.0392
x1 = 0.8912 | 0.0292
x1 = 0.9319 | 0.0186

[2]
Settings | mass density, 298.15 K [kg/m3] | mass density, 303.15 K [kg/m3] | mass density, 308.15 K [kg/m3] | speed of sound, 298.15 K [m/s] | speed of sound, 303.15 K [m/s] | speed of sound, 308.15 K [m/s]
x1 = 0.0902 | 1061.1 | 1054.9 | 1048.7 | 1326.8 | 1304.4 | 1281.7
x1 = 0.1536 | 1062.6 | 1056.4 | 1050.4 | 1320 | 1297.8 | 1275.2
x1 = 0.2167 | 1064 | 1057.9 | 1052 | 1314.3 | 1292.5 | 1270.4
x1 = 0.2734 | 1065.2 | 1059.3 | 1053.4 | 1310.1 | 1288.8 | 1267
x1 = 0.3169 | 1066.1 | 1060.2 | 1054.4 | 1307.4 | 1286.4 | 1265.1
x1 = 0.3843 | 1067.5 | 1061.7 | 1055.9 | 1303.8 | 1283.5 | 1262.7
x1 = 0.4301 | 1068.4 | 1062.7 | 1057 | 1301.9 | 1281.9 | 1261.4
x1 = 0.4831 | 1069.4 | 1063.7 | 1058.1 | 1300.1 | 1280.3 | 1260.3
x1 = 0.5278 | 1070.2 | 1064.6 | 1059 | 1298.9 | 1279.3 | 1259.6
x1 = 0.5834 | 1071.2 | 1065.7 | 1060.2 | 1297.8 | 1278.4 | 1258.7
x1 = 0.6265 | 1071.9 | 1066.5 | 1061 | 1297.3 | 1277.9 | 1258.3
x1 = 0.6793 | 1072.7 | 1067.4 | 1062 | 1296.8 | 1277.4 | 1258
x1 = 0.7315 | 1073.6 | 1068.3 | 1063 | 1296.6 | 1277.3 | 1257.8
x1 = 0.7829 | 1074.4 | 1069.1 | 1063.9 | 1296.7 | 1277.4 | 1257.9
x1 = 0.8242 | 1075 | 1069.8 | 1064.7 | 1296.9 | 1277.6 | 1258.1
x1 = 0.8565 | 1075.4 | 1070.3 | 1065.2 | 1297.1 | 1277.8 | 1258.5
x1 = 0.9013 | 1076 | 1071 | 1066 | 1297.5 | 1278.5 | 1259.3
x1 = 0.9325 | 1076.5 | 1071.5 | 1066.5 | 1297.8 | 1279 | 1260.1
x1 = 1 | 1077.3 | 1072.5 | 1067.6 | 1298.7 | 1280.7 | 1262.7
